Test [1] has as its target T1, MET (Chlorocebus aethiops, UniProt Q2IBA6).
T1 construct: different combinations of the MET β-subunit (140 kDa), Met-αβ heterodimer (190 kDa) and HGF complexes; endogenous in cells; host or cells: COS7 cells (wild type for 125I-HGF; transfected with pc3-GFRα1/GFP for 125I-GDNF)
The test is described as follows: 125I-labelled GDNF and HGF binding, chemical crosslinking, anti-MET immunoprecipitation. Here is the method: Binding of ^125I-GDNF to COS7 cells transfected with GFRα1, and ^125-HGF to wild-type COS7, followed by cross-linking with EDC together with sulfo-NHS. Inmunoprecipitates with anti-MET antibodies (IP-Met) were analysed by SDS-PAGE under reducing conditions. ^125I-HGF α subunit and proHGF are marked by arrows. ^125I-HGF/MET complexes are denoted by arrow heads. The results are representative of five independent experiments.
GDNF and HGF were enzymatically iodinated with [^125I]NaI (Amersham Pharmacia Biotech) with lactoperoxidase to a specific activity of 100.000 cpm/ng as described (31). COS7 cells were transfected with pc3-GFRα1/GFP two days prior the assay. 2 nM of ^125I-GDNF or 1 nM of ^125I-HGF were allowed to bind to cell monolayers for 1-2 h on ice in binding buffer (DMEM/15 mM HEPES, pH 7.5; 0.2% BSA), washed, and chemically cross-linked for 30 min at room temperature using BS^3 ([Bis(sulfosuccinimidyl)suberate]), DSS ((Disulfosuccinimidyl)suberate), DSP (3,3-Dithio-bis-(sulfosuccinimidyl)propionate) or EDC ((1-Ethyl-3-[3-dimethylaminopropyl]carbodiimide Hydrochloride)) with sulfo-NHS (N-Hydroxysulfosuccinimide) (Pierce). The non-specific binding of GDNF was estimated by the amount of ^125I-GDNF binding to cells in the presence of 300 n M unlabeled GDNF. Cells were washed, lysed and immunoprecipitated with anti-MET antibodies as described. Gels were dried and analyzed by phosphorimaging in a BAS Reader 1800 (Fuji).

The subject of test [2] is wild-type MDCK cells. The settings on record: Stoker et al., 1987; cited from earlier work.
Test [3] relates to MET. Put plainly: MET phosphorylation in MDCK cells (immunoprecipitation, Western blotting). In kind it is cell-based, dog. Here is the method:
(§1) To detect MET activation, GFRα1- and RET/GFRα1-expressing MDCK or SHEP cells were starved overnight in MEM or RPMI 1640 with 1% FCS, respectively, and in serum-free medium for 2 h prior the induction. After 15 min incubation at 37° C. with GDNF (at indicated concentrations) or with 50 ng/ml HGF, cells were lysed as described. Cleared cell lysates were incubated with anti-MET antibodies (Santa Cruz Biotechnologies, Inc.) overnight at 4° C. Immunoprecipitates were collected with protein A-SEPHAROSE (Amersham Pharmacia Biotech), washed, separated by SDS-PAGE and transferred to HYBOND-ECL membranes. Membranes were immunoblotted with anti-phospho-tyrosine antibodies (Upstate Group Inc.) or anti-MET antibodies.
Alternatively, 30 μg of protein was incubated overnight at 4° C. with 10 μl Immobilized Phospho-Tyrosine Monoclonal Antibodies (Cell Signalling, NEB). Immunocomplexes were washed and analysed as described.
(§2) For all experiments, densitometry and quantifications were performed using TINA 2.0 program (Raytest, Straubenhardt, Germany).
(§3) For the inhibition of MET, and Src activation, SHEP or GFRα1- and RET/GFRα1-expressing MDCK cells were starved as described above. 1 or […] of the inhibitor PP2 (Calbiochem) was added 30 min before induction by GDNF or HGF. DMSO (dimethyl sulfoxide) was added to the positive controls together with GDNF or HGF.
For orientation: A western blot detects proteins with antibodies after separation by electrophoresis.

Test [4] concerns the target MET (Homo sapiens, UniProt P08581). To be noted: Villa-Moruzzi et al., 1993; cited from earlier work.
In test [5] the test system is wild-type MDCK cells. The test is described as follows: Branching tubule formation assay in 3-D collagen gel. The class given is cell-based, dog. To be noted: 3-D collagen gel. Here is the method: (§4) From the total amount of cysts in the field, the percentage of cysts with long branches was calculated. Only branches with lengths of more than two cyst diameters were counted.
(§5) Trypsinized cells were mixed 1:3 with collagen type I solution and plated. MEM with 10% FCS was overlaid on the gels with or without GDNF (Cephalon Inc. or R&D Systems, Inc.) or 50 ng/ml HGF. Cells in collagen were cultured for 3 days; GDNF-containing medium was changed daily. For quantification, cells were cultured for 3 days, fixed by 3% glutaraldehyde in PBS and counted under a light microscope.
(§6) To avoid the effect of possible contamination of GDNF preparation, recombinant GDNF from two different sources were tested. One tested GDNF was expressed in baculovirus-infected insect cells (Cephalon Inc.), the other was expressed in mouse myeloma cell line NSO (R&D Systems, Inc.).

Test [6] relates to MET. Put plainly: MET phosphorylation in SHEP neuroblastoma cells. The class given is cell-based, human. The settings on record: SHEP cells. Here is the method:
FIG. 7B: SHEP cells were grown with GDNF (10 ng/ml (lanes 2-4) or 5 pg/ml (lanes 5-7)) or HGF (10 ng/ml (lanes 8-9)) in the presence of PP2 (1 μM (lanes 3 and 6) and 10 μM (lanes 4 and 7)). To exclude a possible cytotoxic effect of the solvent, DMSO was added to the controls. […] The numbers below the lane indicate the fold of induction of MET tyrosine kinase. The results are representative of three independent experiments.
as §1, §2, §3

In test [7] the test system is RET/GFRα1-expressing MDCK cells. The test is described as follows: Branching tubule formation assay in 3-D collagen gel. The class given is cell-based, dog. The settings on record: ligand 100 ng/ml; 3-D collagen gel. As for the experimental part:
as §4
(§7) FIG. 2C: Dose-dependence of GDNF-induced branching of GFRα1- and RET/GFRα1-expressing MDCK cells. GDNF concentrations are per ml (x-axis). Results are reported as fold of branching cysts count over the non-induced control. Means±standard errors of the mean of five to eight counted fields are shown. The results are representative of five (A and B) and three (C) independent experiments, p<0.001.
as §5, §6

In test [8] the test system is GFRα1-expressing MDCK cells. Described as above. In kind it is cell-based, dog. To be noted: ligand 100 ng/ml; 3-D collagen gel. As for the experimental part:
as §4, §7, §5, §6

[9] abbreviates: GFRα1- and RET/GFRα1-expressing MDCK cells, data not shown.

T1 sequence (Q2IBA6 25-1381): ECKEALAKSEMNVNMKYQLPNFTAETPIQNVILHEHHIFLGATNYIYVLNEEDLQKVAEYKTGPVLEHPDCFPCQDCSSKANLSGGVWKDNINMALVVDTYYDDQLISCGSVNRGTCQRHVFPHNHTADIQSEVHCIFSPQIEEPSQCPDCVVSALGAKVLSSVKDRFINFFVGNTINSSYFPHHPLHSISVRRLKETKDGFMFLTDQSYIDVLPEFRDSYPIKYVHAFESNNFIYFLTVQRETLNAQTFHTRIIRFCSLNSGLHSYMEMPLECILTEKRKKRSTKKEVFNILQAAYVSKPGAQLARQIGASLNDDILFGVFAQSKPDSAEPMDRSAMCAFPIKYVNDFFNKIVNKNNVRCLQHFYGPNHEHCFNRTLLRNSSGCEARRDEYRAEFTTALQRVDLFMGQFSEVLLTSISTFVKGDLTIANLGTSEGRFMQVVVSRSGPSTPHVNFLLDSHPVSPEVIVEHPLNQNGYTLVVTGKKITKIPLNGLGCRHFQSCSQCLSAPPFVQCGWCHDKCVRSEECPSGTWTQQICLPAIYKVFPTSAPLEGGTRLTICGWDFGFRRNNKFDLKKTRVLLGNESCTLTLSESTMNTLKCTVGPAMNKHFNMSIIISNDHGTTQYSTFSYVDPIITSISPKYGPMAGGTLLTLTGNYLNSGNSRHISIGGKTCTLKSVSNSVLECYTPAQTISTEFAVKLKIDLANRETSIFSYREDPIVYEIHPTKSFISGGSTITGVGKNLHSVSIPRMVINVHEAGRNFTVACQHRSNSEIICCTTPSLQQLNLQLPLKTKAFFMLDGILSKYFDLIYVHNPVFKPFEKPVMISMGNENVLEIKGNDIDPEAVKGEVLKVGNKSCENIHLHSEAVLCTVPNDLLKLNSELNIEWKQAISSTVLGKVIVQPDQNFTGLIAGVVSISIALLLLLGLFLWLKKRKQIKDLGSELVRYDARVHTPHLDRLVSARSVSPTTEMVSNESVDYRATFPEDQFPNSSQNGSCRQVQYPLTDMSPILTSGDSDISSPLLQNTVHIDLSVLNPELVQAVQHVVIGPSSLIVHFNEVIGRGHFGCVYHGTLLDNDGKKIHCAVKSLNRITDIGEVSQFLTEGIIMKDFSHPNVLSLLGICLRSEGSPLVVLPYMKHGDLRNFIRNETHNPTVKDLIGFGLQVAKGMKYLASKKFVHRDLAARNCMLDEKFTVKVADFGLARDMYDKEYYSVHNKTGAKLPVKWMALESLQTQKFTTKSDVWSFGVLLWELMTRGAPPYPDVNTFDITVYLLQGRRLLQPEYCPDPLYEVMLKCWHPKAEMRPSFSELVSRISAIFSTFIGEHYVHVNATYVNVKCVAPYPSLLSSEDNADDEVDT
Chain of MET (Homo sapiens, UniProt P08581) (P08581 25-1390): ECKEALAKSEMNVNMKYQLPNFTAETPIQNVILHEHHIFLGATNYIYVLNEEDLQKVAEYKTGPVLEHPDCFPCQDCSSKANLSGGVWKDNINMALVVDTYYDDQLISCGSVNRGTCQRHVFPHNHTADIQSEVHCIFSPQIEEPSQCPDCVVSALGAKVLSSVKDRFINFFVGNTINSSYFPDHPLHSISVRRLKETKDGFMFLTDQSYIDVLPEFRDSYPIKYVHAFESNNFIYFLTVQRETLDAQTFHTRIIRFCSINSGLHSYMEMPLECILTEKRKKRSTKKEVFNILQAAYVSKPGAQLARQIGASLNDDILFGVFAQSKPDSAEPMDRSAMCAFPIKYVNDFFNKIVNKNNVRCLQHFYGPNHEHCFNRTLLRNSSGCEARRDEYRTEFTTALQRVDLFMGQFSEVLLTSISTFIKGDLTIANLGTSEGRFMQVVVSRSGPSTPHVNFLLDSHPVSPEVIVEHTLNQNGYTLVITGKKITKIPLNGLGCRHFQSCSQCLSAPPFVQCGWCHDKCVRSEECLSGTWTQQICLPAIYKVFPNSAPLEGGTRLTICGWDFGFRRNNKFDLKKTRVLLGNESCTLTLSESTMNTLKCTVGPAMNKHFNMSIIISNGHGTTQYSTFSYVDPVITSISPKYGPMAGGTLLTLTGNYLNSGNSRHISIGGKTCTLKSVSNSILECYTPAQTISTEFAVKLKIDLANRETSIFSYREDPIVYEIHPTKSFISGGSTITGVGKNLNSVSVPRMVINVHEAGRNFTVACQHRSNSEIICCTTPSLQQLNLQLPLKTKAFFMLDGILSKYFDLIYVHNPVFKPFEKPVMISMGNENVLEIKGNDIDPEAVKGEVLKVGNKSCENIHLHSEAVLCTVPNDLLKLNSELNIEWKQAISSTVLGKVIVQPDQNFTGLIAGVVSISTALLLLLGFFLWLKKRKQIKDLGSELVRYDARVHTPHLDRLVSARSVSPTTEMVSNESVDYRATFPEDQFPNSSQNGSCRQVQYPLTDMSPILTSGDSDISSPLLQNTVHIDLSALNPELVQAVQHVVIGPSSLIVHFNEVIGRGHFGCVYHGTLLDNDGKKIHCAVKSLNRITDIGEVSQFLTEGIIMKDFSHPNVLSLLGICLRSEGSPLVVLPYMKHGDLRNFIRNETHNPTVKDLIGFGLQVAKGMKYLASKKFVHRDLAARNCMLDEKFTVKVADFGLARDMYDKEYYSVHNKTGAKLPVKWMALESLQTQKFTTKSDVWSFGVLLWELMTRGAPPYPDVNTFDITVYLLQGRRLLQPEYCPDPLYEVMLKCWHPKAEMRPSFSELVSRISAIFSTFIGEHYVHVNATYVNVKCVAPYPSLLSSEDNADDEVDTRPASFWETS

“^125I-HGF: HGF enzymatically iodinated with [125I]NaI with lactoperoxidase [reference compound]”: the “cross-linked complexes with MET” value with MET [1] (COS7 cells, reducing conditions, positive control) was “approximately 200 kDa, 250 kDa and 340 kDa complexes”.
Regarding “HGF: hepatocyte growth factor (Sigma); binds to and activates MET receptor tyrosine kinase”, the chemotaxis result in the test on wild-type MDCK cells [2] is listed as “induces chemotaxis”. The MET phosphorylation entry in the test with MET [3] (mock-transfected MDCK cells) was “only HGF phosphorylated MET”. The “concentration at which MET is saturated” value with MET [4] is given as 0.5 nM. Besides, in the test on wild-type MDCK cells [5] (HGF 50 ng/ml), the branching tubule formation result is recorded as “only branch on exposure to HGF”.
Regarding `CC(C)(C)n1nc(-c2ccc(Cl)cc2)c2c(N)ncnc21` [PP2, reference compound], in the test with MET [6] (PP2 1 μM), the “effect on GDNF-dependent phosphorylation of MET” value was “strongly reduced”. The “effect on HGF-induced MET phosphorylation” value with MET [6] was “did not affect”. In the test with MET [3] (setting [9]), the “effect on GDNF-induced MET activation” value is listed as “inhibited” and the “effect on HGF-induced MET phosphorylation” value is on record as “but not the HGF-induced MET phosphorylation”.

B1: PSPN: persephin, the ligand for GFRα4, not known to interact with GFRα1 (protein, UniProt O60542 22-156, looked up)
Persephin: WGPDARGVPVADGEFSSEQVAKAGGTWLGTHRPLARLRRALSGPCQLWSLTLSVAELGLGYASEEKVIFRYCAGSCPRGARTQHGLALARLQGQGRAHGGPCCRPTRYTDVAFLDDRHRWQRLPQLSAAACGCGG
For B1, the branching tubule formation entry in test [7] is listed as “did not evoke branching”; in test [8], “did not evoke branching”; with wild-type MDCK cells [5] (ligand 100 ng/ml) it was “does not induce branching”.

B2: ^125I-GDNF: GDNF enzymatically iodinated with [125I]NaI with lactoperoxidase (protein, UniProt P39905 78-211, looked up)
Glial cell line-derived …: SPDKQMAVLPRRERNRQAAAANPENSRGKGRRGQRGKNRGCVLTAIHLNVTDLGLGYETKEELIFRYCSGSCDAAETTYDKILKNLSRNRRLVSDKVGQACCRPIAFDDDLSFLDDNLVYHILRKHSAKRCGCI
modifications: 125I label
notes: GDNF enzymatically iodinated with [125I]NaI with lactoperoxidase
B2: in the test with MET [1] (GFRα1-expressing MDCK, SHEP or COS7 cells, and NIH 3T3 cells transiently transfected with GFRα1, EDC with sulfo-NHS, BS3, DSS, DSP), the “cross-linked complexes with MET” value is given as “No high molecular weight complexes were revealed”.
